Here are results for 9 compounds from EPA's ToxRefDB 2.

Data set [1] deals with rat. The settings on record: Other (NonGuideline or Guideline Not Listed); sprague dawley; Oral; Gavage/Intubation; dose end: 1 day; group: cannot be grouped; systemic / in life observation / clinical signs / salivation + systemic / in life observation / clinical signs / urogenital staining.
For data set [2], the system named is dog. The settings on record: Subchronic oral toxicity in nonrodent, beagle, Gavage/Intubation, dose end: 14 week, group: systemic.
The subject of data set [3] is rat. To be noted: Subchronic oral toxicity in rodents, wistar, Feed, dose end: 98 day, group: systemic.
For data set [4], the system named is mouse. The settings on record: Subchronic oral toxicity in rodents, b6c3f1, Feed, dose end: 7 week, group: systemic, systemic / in life observation / body weight / body weight.
In data set [5] the test system is rat. To be noted: Combined chronic toxicity/carcinogenicity, fischer, Oral, Feed, dose end: 103 week, group: systemic.
Data set [6] has as its system mouse. To be noted: Carcinogenicity; b6c3f1; Oral; Feed; dose end: 101 week; group: systemic; systemic / in life observation / body weight / body weight + systemic / pathology microscopic / liver / hyperplasia + systemic / pathology ….
Data set [7] has as its system rat. To be noted: Subchronic oral toxicity in rodents, fischer, Feed, dose end: 7 week, group: systemic.
For data set [8], the system named is rat. To be noted: Carcinogenicity; fischer; Oral; Feed; dose end: 78 week; group: systemic; systemic / in life observation / body weight / body weight.
Data set [9] concerns mouse. To be noted: Carcinogenicity; b6c3f1; Oral; Feed; dose end: 78 week; group: systemic; systemic / in life observation / body weight / body weight.
For data set [10], the system named is rat. The settings on record: Prenatal developmental toxicity study; sprague dawley; Oral; Gavage/Intubation; dose end: 17 GD; group: maternal; systemic / in life observation / body weight / body weight gain.
The test system of data set [11] is mouse. To be noted: Subchronic oral toxicity in rodents, b6c3f1, Gavage/Intubation, dose end: 13 week, group: systemic, systemic / in life observation / mortality / mortality.
For data set [12], the system named is rat. The settings on record: Carcinogenicity; fischer; Oral; Gavage/Intubation; dose end: 103 week; group: systemic; systemic / pathology microscopic / stomach / hyperkeratosis + systemic / pathology microscopic / stomach / hyperplasia + systemic / ….
For data set [13], the system named is mouse. The settings on record: Carcinogenicity; b6c3f1; Oral; Gavage/Intubation; dose end: 103 week; group: systemic; systemic / pathology microscopic / stomach / hyperkeratosis + systemic / pathology microscopic / stomach / hyperplasia + systemic / ….
In data set [14] the test system is rat. The settings on record: Prenatal developmental toxicity study, sprague dawley, Oral, Gavage/Intubation, dose end: 15 GD.
The subject of data set [15] is rat. The settings on record: Subchronic oral toxicity in rodents, wistar, [Not Specified], dose end: 6 month.
Data set [16] deals with dog. To be noted: Chronic toxicity, beagle, Oral, Feed, dose end: 52 week.
Data set [17] deals with rat. The settings on record: Chronic toxicity; wistar; Oral; Feed; dose end: 92 week; group: cholinesterase; cholinesterase / cholinesterase / cholinesterase / erythrocyte cholinesterase (che) + cholinesterase / cholinesterase / cholinesterase / ….
The test system of data set [18] is rabbit. The settings on record: Sub-acute repeat dose toxicity, Oral, Gavage/Intubation, dose end: 5 day, group: systemic.
In data set [19] the test system is rabbit. The settings on record: Sub-acute repeat dose toxicity; Oral; Gavage/Intubation; dose end: 5 day; group: systemic; systemic / in life observation / food consumption / food consumption.
Data set [20] concerns rat. To be noted: Chronic toxicity; sprague dawley; Oral; Feed; dose end: 104 week; group: systemic; systemic / pathology microscopic / mammary gland / mixed tumor nos + systemic / in life observation / body weight / body weight gain + ….
Where [21] appears, read: systemic / clinical chemistry / chloride / chloride + systemic / clinical chemistry / phosphorus / phosphorus + systemic / clinical ….
Where [22] appears, read: systemic / clinical chemistry / phosphorus / phosphorus + systemic / pathology microscopic / bone / [other].
[23] abbreviates: systemic / in life observation / body weight / body weight gain + systemic / in life observation / clinical signs / wetness + systemic / ….
Setting [24] is: systemic / in life observation / body weight / body weight.
Setting [25] is: systemic / in life observation / body weight / body weight + systemic / pathology microscopic / lung / mixed tumor nos + systemic / ….
[26] abbreviates: group: developmental, developmental / developmental malformation / bone / short.
[27] abbreviates: group: maternal, systemic / in life observation / body weight / body weight + systemic / in life observation / body weight / body weight gain + systemic / in….
Where [28] appears, read: group: cholinesterase, cholinesterase / cholinesterase / cholinesterase / brain cholinesterase (che) + cholinesterase / cholinesterase / cholinesterase / ….
Setting [29] is: group: systemic, systemic / clinical chemistry / glucose / glucose + systemic / organ weight / liver / nos + systemic / organ weight / liver / relative to ….
The mark [30] stands for this setting: group: systemic, systemic / organ weight / brain / nos + systemic / organ weight / kidney / nos.
Setting [31] is: group: cholinesterase, cholinesterase / cholinesterase / cholinesterase / plasma cholinesterase (che).
Setting [32] is: group: systemic, systemic / pathology microscopic / lymph node / hemorrhage.
Where [33] appears, read: group: systemic, systemic / pathology microscopic / lymph node / hemorrhage + systemic / pathology microscopic / lymph node / hyperplasia.
[34] abbreviates: systemic / in life observation / body weight / body weight + systemic / in life observation / food consumption / food consumption.
Setting [35] is: systemic / in life observation / food consumption / food consumption.

Turning to `Cc1ncc([C@@H](CCCCCCc2ccc3c(n2)NCCC3)CC(=O)O)cn1`, in data set [1], the LEL worked out at 2000 mg/kg/day, the LOAEL was over 2000 mg/kg/day, the NEL is under 2000 mg/kg/day and the NOAEL is at least 2000 mg/kg/day. In data set [2] (setting [21]), the LOAEL was over 45 mg/kg/day and the NOAEL is at least 45 mg/kg/day. In data set [2] (setting [22]), the LEL was found to be 5 mg/kg/day and the NEL is under 5 mg/kg/day.
Take `Oc1cc(Cl)c(Cl)cc1Cl` [2,4,5-Trichlorophenol]: in data set [3] (setting [23]), the LOAEL was over 1000 mg/kg/day, the NEL was 100 mg/kg/day and the NOAEL was at least 1000 mg/kg/day. For the same compound, the LEL in [3] (systemic / in life observation / clinical signs / wetness + systemic / pathology microscopic / kidney / degeneration + systemic / pathology …) worked out at 300 mg/kg/day.
As for `Cc1ccc(N)cc1N` [2,4-Diaminotoluene], the LEL was determined as 30 mg/kg/day in [4], 3.95 mg/kg/day in data set [5] (setting [25]), 15 mg/kg/day in [6] and 12.5 mg/kg/day in [7] (setting [24]). The LOAEL was 45 mg/kg/day in data set [4], 3.95 mg/kg/day in data set [5] (setting [24]), 15 mg/kg/day in [6] and 25 mg/kg/day in [7] (setting [24]). Further, the NEL in data set [4] is 15 mg/kg/day; in [5] (setting [25]), under 3.95 mg/kg/day; in data set [6], under 15 mg/kg/day; in data set [7] (setting [24]), under 12.5 mg/kg/day. For the same compound, the NOAEL in [4] was 30 mg/kg/day; in data set [5] (setting [24]) it was under 3.95 mg/kg/day; in data set [6] it was under 15 mg/kg/day; in data set [7] (systemic / in life observation / body weight / body weight + systemic / in life observation / mortality / mortality + systemic / pathology …) it was 12.5 mg/kg/day.
As to `Cc1ccc([N+](=O)[O-])cc1N` [2-Methyl-5-nitroaniline], in data set [8], the LEL came to 2.5 mg/kg/day, the LOAEL came to 2.5 mg/kg/day, the NEL is under 2.5 mg/kg/day and the NOAEL is under 2.5 mg/kg/day. Besides, in data set [9], the LEL was found to be 180 mg/kg/day, the LOAEL came to 180 mg/kg/day, the NEL is under 180 mg/kg/day and the NOAEL was under 180 mg/kg/day.
In data set [10], `CCCCc1ncc(/C=C(\Cc2cccs2)C(=O)O)n1Cc1ccc(C(=O)O)cc1` [Eprosartan] registered an LEL of 1000 mg/kg/day, an LOAEL of 1000 mg/kg/day, an NEL of 100 mg/kg/day and an NOAEL of 100 mg/kg/day.
As to `C=CC(=O)OCC` [Ethyl acrylate], in data set [11], the LEL was 25 mg/kg/day, the LOAEL was over 25 mg/kg/day, the NEL came out at 12 mg/kg/day and the NOAEL was at least 25 mg/kg/day. In [12], the LEL is 100 mg/kg/day, the LOAEL stood at 100 mg/kg/day, the NEL is under 100 mg/kg/day and the NOAEL was under 100 mg/kg/day. In data set [13], the LEL came out at 100 mg/kg/day, the LOAEL was determined as 100 mg/kg/day, the NEL is under 100 mg/kg/day and the NOAEL is under 100 mg/kg/day.
Turning to `COP(=S)(OC)Oc1ccc([N+](=O)[O-])c(C)c1` [Fenitrothion], the LEL in [14] (setting [26]) worked out at 25 mg/kg/day; in [14] (setting [27]) it was 25 mg/kg/day; in data set [15] (setting [28]), 2 mg/kg/day; in data set [15] (setting [30]) it was 0.59 mg/kg/day; in data set [16] (setting [31]), 0.25 mg/kg/day; in [16] (setting [32]) it was 0.25 mg/kg/day. Besides, the LEL in data set [17] turned out to be 0.27 mg/kg/day. In addition, the LOAEL stood at 25 mg/kg/day in data set [14] (setting [26]); 25 mg/kg/day in data set [14] (setting [27]); 9.16 mg/kg/day in data set [15] (setting [28]); 2 mg/kg/day in data set [15] (setting [29]); 0.25 mg/kg/day in [16] (setting [31]); 0.25 mg/kg/day in data set [16] (setting [32]). In addition, the LOAEL in [17] came to 0.27 mg/kg/day. The NEL in data set [14] (setting [26]) is 8 mg/kg/day; in [14] (setting [27]) it was 8 mg/kg/day; in [15] (setting [28]), 0.64 mg/kg/day; in data set [15] (setting [30]), under 0.59 mg/kg/day; in [16] (setting [31]), 0.125 mg/kg/day; in data set [16] (setting [33]), 0.125 mg/kg/day. The NEL in [17] stood at 0.128 mg/kg/day. Moreover, the NOAEL in data set [14] (setting [26]) came out at 8 mg/kg/day; in [14] (setting [27]), 8 mg/kg/day; in [15] (setting [28]), 1.83 mg/kg/day; in data set [15] (setting [29]), 0.64 mg/kg/day; in [16] (setting [31]) it was 0.125 mg/kg/day; in data set [16] (setting [33]), 0.125 mg/kg/day. Further, the NOAEL in data set [17] worked out at 0.128 mg/kg/day.
In the case of `O=C(N[C@@H](Cc1ccccc1)[C@@H](O)C(=O)N1C[C@@H](O)[C@@H](O)C1)c1cc2cc(Cl)ccc2[nH]1` [Ingliforib], in data set [18] (setting [34]), the LOAEL was over 500 mg/kg/day and the NOAEL was at least 500 mg/kg/day. Also, in data set [18] (setting [35]), the LEL stood at 50 mg/kg/day and the NEL is under 50 mg/kg/day. Further, in data set [19], the LEL came to 250 mg/kg/day, the LOAEL is over 500 mg/kg/day, the NEL was under 250 mg/kg/day and the NOAEL is at least 500 mg/kg/day.
For the compound `C#C[C@]1(OC(C)=O)CC[C@H]2[C@@H]3CCC4=CC(=O)CC[C@@H]4[C@H]3CC[C@@]21C` [Norethindrone acetate], in [20], the LEL was 0.289 mg/kg/day, the LOAEL was over 3.3 mg/kg/day, the NEL was under 0.289 mg/kg/day and the NOAEL is at least 3.3 mg/kg/day.
